Values quoted from earlier work in publication PMC11020070, “Discovery of Protease-Activated Receptor 4 (PAR4)-Tethered Ligand Antagonists Using Ultralarge Virtual Screening” (ACS Pharmacology & Translational Science, 2024).

Key:
PAR4 [1] = test system: PAR4; design: method as in PMID 28053157; conditions: cited from earlier work
[2] = design: method as in PMID 35758258, PMID 23222541; conditions: phase I, healthy participants; cited from earlier work
PAR4 [3] = test system: PAR4; design: method as in PMID 27777004; conditions: read-out: IC50 against γ-thrombin; cited from earlier work
PAR1 = target: T1, PAR1 (Homo sapiens, UniProt P25116); design: method as in PMID 22443427, PMID 22077816; conditions: cited from earlier work
T1 construct: endogenous in cells; host or cells: platelets
T1 sequence (P25116 22-425): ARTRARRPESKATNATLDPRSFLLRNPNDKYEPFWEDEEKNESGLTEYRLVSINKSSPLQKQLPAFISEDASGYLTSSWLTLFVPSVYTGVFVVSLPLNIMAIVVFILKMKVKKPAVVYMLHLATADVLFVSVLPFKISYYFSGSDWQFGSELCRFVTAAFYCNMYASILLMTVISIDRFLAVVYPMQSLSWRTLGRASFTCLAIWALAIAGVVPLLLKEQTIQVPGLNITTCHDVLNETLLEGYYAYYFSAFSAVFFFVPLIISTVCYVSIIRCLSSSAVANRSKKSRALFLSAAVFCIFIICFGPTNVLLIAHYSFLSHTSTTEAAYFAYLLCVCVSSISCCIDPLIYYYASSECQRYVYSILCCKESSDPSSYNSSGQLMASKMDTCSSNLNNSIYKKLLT

In the case of `COc1cc(OCc2nc(N3CCOCC3)sc2C)c2cc(-c3cn4nc(OC)sc4n3)oc2c1` [BMS-986120], the antithrombotic activity (PAR4 [1]; cynomolgus monkey arterial thrombosis model) is listed as “potent and highly efficacious antithrombotic activity”, the bleeding liability (PAR4 [1]; nonhuman primate model) is listed as “low bleeding liability” and the safety and tolerability [2] is listed as “safe and well tolerated”.
In the case of `COc1nn2cc(-c3c(CO)n(Cc4ccccc4Cl)c4ccc(OC(F)(F)F)cc34)nc2s1` [Compound 6], the IC50 (PAR4 [3]) is listed as 4.35 µM.
In the case of `CCOC(=O)N[C@@H]1CC[C@@H]2[C@@H](C1)C[C@H]1C(=O)O[C@H](C)[C@H]1[C@H]2/C=C/c1ccc(-c2cccc(F)c2)cn1` [vorapaxar], the primary efficacy outcome (PAR1; added to standard care, acute coronary syndrome, phase 3) is given as “failed to meet its primary efficacy outcome” and the bleeding (PAR1; phase 3, especially intracranial hemorrhage) is given as “excess of major bleeding”.
